Laboratory results reported in patent publication US4910191A, “19-substituted progesterone derivatives useful as 19-hydroxylase inhibitors” (Merrell Dow Pharmaceuticals Inc., priority 1988, dated 1990).

Columns and labels:
[1] = test system: weanling SHR rats; settings: administered to weanling SHR rats; Melby et al., 1987; cited from earlier work
[2] = biological target: adrenal 19-hydroxylase; experiment: in vitro radioenzymatic assay, inhibition of adrenal 19-hydroxylase (19-hydroxylation of radiolabeled deoxycorticosterone); type: biochemical, rat, hamster, bovine, primate, or human
Procedure: The compounds of the present invention are useful as 19-hydroxylase inhibitors and antihypertensive agents. […] The test compounds are solubilized in buffer/solvent media at concentrations ranging from 1 nM to 50 μM, then added to assay tubes containing an adrenal mitochondrial suspension, i.e., rat, hamster, bovine, primate, or human, an NADPH-generating system, and radiolabeled deoxycorticosterone. The assay components are incubated for varying time intervals at 25°-37° C. and the reaction is quenched. The hydroxylated corticoids [i.e., 19--HO--DOC (19-hydroxydesoxycorticosterone), 18--HO--DOC(18-hydroxydeoxycorticosterone) and corticosterone] are extracted with organic solvent and isolated by standard chromatographic procedures.

[3] = times the potency of DOC; Kagawa et al., 1957; cited from earlier work
[4] = test system: bad bladder epithelia; settings: relative to aldosterone; Perrone et al., 1981; cited from earlier work
[5] = Funder et al., 1978; cited from earlier work

## C#CC[C@]12CCC(=O)C=C1CC[C@@H]1[C@@H]2CC[C@]2(C)C(=O)CC[C@@H]12 [10-(2-propynyl)estr-4-ene-3,17-dione]
[1]
  development of hypertension: retards the development of hypertension
  levels of urinary free 19-norDOC: reduces the levels of urinary free 19-norDOC

## C#CC[C@]12CCC(=O)C=C1CC[C@@H]1[C@@H]2CC[C@]2(C)[C@@H](C(=O)CO)CC[C@@H]12 [21-hydroxy-10-(2-propynyl)-19-norpregn-4-ene-3,20-dione]
[2]; adrenal mitochondrial suspension, NADPH-generating system, radiolabeled deoxycorticosterone, 25°-37° C., time-dependent, read-out: IC50 (time-dependent enzyme inhibition)
  IC50: ~50 nM
[2]; greater affinity than DOC
  affinity for the 19-hydroxylase active site relative to the natural substrate (DOC): 12 times

## C[C@]12CC[C@H]3[C@@H](CCC4=CC(=O)CC[C@@H]43)[C@@H]1CC[C@@H]2C(=O)CO [Example 19-norDOC, 19-nordeoxycorticosterone]
[3]
  Na-retaining activity, potency relative to DOC: two to five
[4]
  stimulating Na^+ transport across bladder epithelia, potency vs aldosterone: equipotent to aldosterone
[5]
  hypertensive activity compared to deoxycorticosterone (DOC): much higher hypertensive activity
